In brackets after ≈: the same amount, converted by molar mass.
Columns and labels:
Type in all cases: functional
Cryptococcus neoformans = experiment: Antifungal activity against Cryptococcus neoformans LA314 assessed as reduction in fungal cell growth incubated for 48 hrs by broth microdilution method; settings: LA314, 48 h
Candida albicans = experiment: Antifungal activity against Candida albicans assessed as reduction in fungal cell growth incubated for 48 hrs by broth microdilution method
Candida tropicalis = experiment: Antifungal activity against Candida tropicalis assessed as reduction in fungal cell growth incubated for 48 hrs by broth microdilution method
Pichia kudriavzevii = experiment: Antifungal activity against Candida krusei assessed as reduction in fungal cell growth incubated for 48 hrs by broth microdilution method
Candida parapsilosis = experiment: Antifungal activity against Candida parapsilosis ATCC 22019 assessed as reduction in fungal cell growth incubated for 48 hrs by broth microdilution method; settings: Lodderomyces parapsilosis, ATCC 22019, 48 h
Aspergillus niger = experiment: Antifungal activity against Aspergillus niger assessed as reduction in fungal cell growth incubated for 72 hrs by broth microdilution method
Nakaseomyces glabratus = experiment: Antifungal activity against Candida glabrata assessed as reduction in fungal cell growth incubated for 48 hrs by broth microdilution method

Structure (SMILES) | MIC (Cryptococcus neoformans) | MIC (Candida albicans) | MIC (Candida tropicalis) | MIC (Pichia kudriavzevii) | MIC (Candida parapsilosis) | MIC (Aspergillus niger) | MIC (Nakaseomyces glabratus)
OC(Cn1cncn1)(Cn1nnc(CCN2CCN(c3cccc(C(F)(F)F)c3)CC2)n1)c1ccc(F)cc1F (stereo not given) | 1 to 16 µg/mL (≈ 1.77 to 28.4 µM) | 1 to 16 µg/mL (≈ 1.77 to 28.4 µM) | 1 to 16 µg/mL (≈ 1.77 to 28.4 µM) | 1 to 16 µg/mL (≈ 1.77 to 28.4 µM) | 1 to 16 µg/mL (≈ 1.77 to 28.4 µM) | 1 to 16 µg/mL (≈ 1.77 to 28.4 µM) | 1 to 16 µg/mL (≈ 1.77 to 28.4 µM)
OC(Cn1cncn1)(Cn1nnc(CCN2CCN(c3ccccc3Cl)CC2)n1)c1ccc(F)cc1F (stereo not given) | 1 to 16 µg/mL (≈ 1.89 to 30.2 µM) | 1 to 16 µg/mL (≈ 1.89 to 30.2 µM) | 1 to 16 µg/mL (≈ 1.89 to 30.2 µM) | 1 to 16 µg/mL (≈ 1.89 to 30.2 µM) | 1 to 16 µg/mL (≈ 1.89 to 30.2 µM) | 1 to 16 µg/mL (≈ 1.89 to 30.2 µM) | 1 to 16 µg/mL (≈ 1.89 to 30.2 µM)
COc1ccc(N2CCN(CCc3nnnn3C(C)C(O)(Cn3cncn3)c3ccc(F)cc3F)CC2)cc1 (stereo not given) | 0.5 to 16 µg/mL (≈ 0.927 to 29.7 µM) | 0.5 to 16 µg/mL (≈ 0.927 to 29.7 µM) | 0.5 to 16 µg/mL (≈ 0.927 to 29.7 µM) | 0.5 to 16 µg/mL (≈ 0.927 to 29.7 µM) | 0.5 to 16 µg/mL (≈ 0.927 to 29.7 µM) | 0.5 to 16 µg/mL (≈ 0.927 to 29.7 µM) | 0.5 to 16 µg/mL (≈ 0.927 to 29.7 µM)
C[C@H](n1nnnc1CCN1CCN(c2c(Cl)cccc2Cl)CC1)[C@](O)(Cn1cncn1)c1ccc(F)cc1F | 0.12 to 16 µg/mL (≈ 0.207 to 27.7 µM) | 0.12 to 16 µg/mL (≈ 0.207 to 27.7 µM) | 0.12 to 16 µg/mL (≈ 0.207 to 27.7 µM) | 0.12 to 16 µg/mL (≈ 0.207 to 27.7 µM) | 0.12 to 16 µg/mL (≈ 0.207 to 27.7 µM) | 0.12 to 16 µg/mL (≈ 0.207 to 27.7 µM) | 0.12 to 16 µg/mL (≈ 0.207 to 27.7 µM)
OC(Cn1cncn1)(Cn1nnc(CCN2CCN(C(c3ccccc3)c3ccccc3)CC2)n1)c1ccc(F)cc1F (stereo not given) | 1 to 16 µg/mL (≈ 1.71 to 27.3 µM) | 1 to 16 µg/mL (≈ 1.71 to 27.3 µM) | 1 to 16 µg/mL (≈ 1.71 to 27.3 µM) | 1 to 16 µg/mL (≈ 1.71 to 27.3 µM) | 1 to 16 µg/mL (≈ 1.71 to 27.3 µM) | 1 to 16 µg/mL (≈ 1.71 to 27.3 µM) | 1 to 16 µg/mL (≈ 1.71 to 27.3 µM)
CC(n1nnc(CCN2CCN(c3ccccc3Cl)CC2)n1)C(O)(Cn1cncn1)c1ccc(F)cc1F (stereo not given) | 1 to 16 µg/mL (≈ 1.84 to 29.4 µM) | 1 to 16 µg/mL (≈ 1.84 to 29.4 µM) | 1 to 16 µg/mL (≈ 1.84 to 29.4 µM) | 1 to 16 µg/mL (≈ 1.84 to 29.4 µM) | 1 to 16 µg/mL (≈ 1.84 to 29.4 µM) | 1 to 16 µg/mL (≈ 1.84 to 29.4 µM) | 1 to 16 µg/mL (≈ 1.84 to 29.4 µM)
COc1ccccc1N1CCN(CCc2nnnn2C(C)C(O)(Cn2cncn2)c2ccc(F)cc2F)CC1 (stereo not given) | 0.5 to 16 µg/mL (≈ 0.927 to 29.7 µM) | 0.5 to 16 µg/mL (≈ 0.927 to 29.7 µM) | 0.5 to 16 µg/mL (≈ 0.927 to 29.7 µM) | 0.5 to 16 µg/mL (≈ 0.927 to 29.7 µM) | 0.5 to 16 µg/mL (≈ 0.927 to 29.7 µM) | 0.5 to 16 µg/mL (≈ 0.927 to 29.7 µM) | 0.5 to 16 µg/mL (≈ 0.927 to 29.7 µM)
CC(n1nnc(CCN2CCN(c3cccc(C(F)(F)F)c3)CC2)n1)C(O)(Cn1cncn1)c1ccc(F)cc1F (stereo not given) | 1 to 16 µg/mL (≈ 1.73 to 27.7 µM) | 1 to 16 µg/mL (≈ 1.73 to 27.7 µM) | 1 to 16 µg/mL (≈ 1.73 to 27.7 µM) | 1 to 16 µg/mL (≈ 1.73 to 27.7 µM) | 1 to 16 µg/mL (≈ 1.73 to 27.7 µM) | 1 to 16 µg/mL (≈ 1.73 to 27.7 µM) | 1 to 16 µg/mL (≈ 1.73 to 27.7 µM)
OC(Cn1cncn1)(Cn1nnc(CCN2CCN(c3ccccc3)CC2)n1)c1ccc(F)cc1F (stereo not given) | 1 to 16 µg/mL (≈ 2.02 to 32.3 µM) | 1 to 16 µg/mL (≈ 2.02 to 32.3 µM) | 1 to 16 µg/mL (≈ 2.02 to 32.3 µM) | 1 to 16 µg/mL (≈ 2.02 to 32.3 µM) | 1 to 16 µg/mL (≈ 2.02 to 32.3 µM) | 1 to 16 µg/mL (≈ 2.02 to 32.3 µM) | 1 to 16 µg/mL (≈ 2.02 to 32.3 µM)
C[C@H](n1nnc(CCN2CCN(c3ccc([N+](=O)[O-])cc3)CC2)n1)[C@](O)(Cn1cncn1)c1ccc(F)cc1F | 0.25 to 16 µg/mL (≈ 0.451 to 28.9 µM) | 0.25 to 16 µg/mL (≈ 0.451 to 28.9 µM) | 0.25 to 16 µg/mL (≈ 0.451 to 28.9 µM) | 0.25 to 16 µg/mL (≈ 0.451 to 28.9 µM) | 0.25 to 16 µg/mL (≈ 0.451 to 28.9 µM) | 0.25 to 16 µg/mL (≈ 0.451 to 28.9 µM) | 0.25 to 16 µg/mL (≈ 0.451 to 28.9 µM)
CC(n1nnnc1CCN1CCN(c2ccccc2Cl)CC1)C(O)(Cn1cncn1)c1ccc(F)cc1F (stereo not given) | 0.5 to 16 µg/mL (≈ 0.919 to 29.4 µM) | 0.5 to 16 µg/mL (≈ 0.919 to 29.4 µM) | 0.5 to 16 µg/mL (≈ 0.919 to 29.4 µM) | 0.5 to 16 µg/mL (≈ 0.919 to 29.4 µM) | 0.5 to 16 µg/mL (≈ 0.919 to 29.4 µM) | 0.5 to 16 µg/mL (≈ 0.919 to 29.4 µM) | 0.5 to 16 µg/mL (≈ 0.919 to 29.4 µM)
COc1ccccc1N1CCN(CCc2nnnn2[C@@H](C)[C@](O)(Cn2cncn2)c2ccc(F)cc2F)CC1 | 0.12 to 16 µg/mL (≈ 0.222 to 29.7 µM) | 0.12 to 16 µg/mL (≈ 0.222 to 29.7 µM) | 0.12 to 16 µg/mL (≈ 0.222 to 29.7 µM) | 0.12 to 16 µg/mL (≈ 0.222 to 29.7 µM) | 0.12 to 16 µg/mL (≈ 0.222 to 29.7 µM) | 0.12 to 16 µg/mL (≈ 0.222 to 29.7 µM) | 0.12 to 16 µg/mL (≈ 0.222 to 29.7 µM)
OC(Cn1cncn1)(Cn1nnc(CCN2CCN(c3ccc(Cl)cc3)CC2)n1)c1ccc(F)cc1F (stereo not given) | 1 to 16 µg/mL (≈ 1.89 to 30.2 µM) | 1 to 16 µg/mL (≈ 1.89 to 30.2 µM) | 1 to 16 µg/mL (≈ 1.89 to 30.2 µM) | 1 to 16 µg/mL (≈ 1.89 to 30.2 µM) | 1 to 16 µg/mL (≈ 1.89 to 30.2 µM) | 1 to 16 µg/mL (≈ 1.89 to 30.2 µM) | 1 to 16 µg/mL (≈ 1.89 to 30.2 µM)
C[C@H](n1nnc(CCN2CCN(c3ccc(F)cc3)CC2)n1)[C@](O)(Cn1cncn1)c1ccc(F)cc1F | 0.25 to 16 µg/mL (≈ 0.474 to 30.3 µM) | 0.25 to 16 µg/mL (≈ 0.474 to 30.3 µM) | 0.25 to 16 µg/mL (≈ 0.474 to 30.3 µM) | 0.25 to 16 µg/mL (≈ 0.474 to 30.3 µM) | 0.25 to 16 µg/mL (≈ 0.474 to 30.3 µM) | 0.25 to 16 µg/mL (≈ 0.474 to 30.3 µM) | 0.25 to 16 µg/mL (≈ 0.474 to 30.3 µM)
CC(n1nnc(CCN2CCN(c3ccc(F)cc3)CC2)n1)C(O)(Cn1cncn1)c1ccc(F)cc1F (stereo not given) | 1 to 16 µg/mL (≈ 1.9 to 30.3 µM) | 1 to 16 µg/mL (≈ 1.9 to 30.3 µM) | 1 to 16 µg/mL (≈ 1.9 to 30.3 µM) | 1 to 16 µg/mL (≈ 1.9 to 30.3 µM) | 1 to 16 µg/mL (≈ 1.9 to 30.3 µM) | 1 to 16 µg/mL (≈ 1.9 to 30.3 µM) | 1 to 16 µg/mL (≈ 1.9 to 30.3 µM)

— ChEMBL document CHEMBL4393657, “Tetrazole hybrids and their antifungal activities” (2019)
